Assay results taken from US10870925B2, “Arrays” (SENGENICS CORPORATION PTE LTD, priority 2001, dated 2020).
Each block holds one compound with its values, some of them ahead of it.

How the values were obtained:
cytochrome P450 3A4 = molecular target: T1, cytochrome P450 3A4 (Homo sapiens, UniProt P08684); experiment: BzRes oxidation and ketoconazole inhibition, cytochrome P450 3A4 microsomes in solution and encapsulated in agarose; format: biochemical; details: standard error in parentheses
T1 construct: host or cells: microsomes
T1 sequence (P08684 whole entry): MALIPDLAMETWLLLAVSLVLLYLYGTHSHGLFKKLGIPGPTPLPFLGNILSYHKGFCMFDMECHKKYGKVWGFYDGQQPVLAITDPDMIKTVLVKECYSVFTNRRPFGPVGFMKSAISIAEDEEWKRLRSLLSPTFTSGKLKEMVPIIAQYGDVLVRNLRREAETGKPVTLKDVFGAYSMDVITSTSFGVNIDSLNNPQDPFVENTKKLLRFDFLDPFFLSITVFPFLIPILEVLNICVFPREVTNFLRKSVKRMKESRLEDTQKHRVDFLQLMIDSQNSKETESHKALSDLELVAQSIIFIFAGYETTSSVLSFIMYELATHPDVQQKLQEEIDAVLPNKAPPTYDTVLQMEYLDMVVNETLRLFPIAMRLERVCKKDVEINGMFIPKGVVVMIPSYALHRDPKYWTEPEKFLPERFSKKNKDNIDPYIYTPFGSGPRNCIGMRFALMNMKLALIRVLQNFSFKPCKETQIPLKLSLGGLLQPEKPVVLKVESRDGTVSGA

3A4*WT = molecular target: T2, 3A4*WT (Homo sapiens, UniProt P08684); experiment: BzRes turnover and ketoconazole inhibition, cumene hydrogen peroxide activated purified P450 3A4 isoform; format: biochemical; details: standard error in parentheses
T2 construct: His-tag (concluded from Ni-NTA / Talon purification); biotinylated tag (BCCP; concluded from streptavidin detection); made in house; host or cells: E. coli XL-10 gold
T2 sequence (P08684 whole entry, canonical isoform): as the sequence (P08684 whole entry) above

3A4*2 = molecular target: T3, 3A4*2 (Homo sapiens, UniProt P08684, S222P); experiment: as above; format: biochemical; details: standard error in parentheses
T3 construct: His-tag (concluded from Ni-NTA / Talon purification); biotinylated tag (BCCP; concluded from streptavidin detection); made in house; host or cells: E. coli XL-10 gold
T3 sequence (P08684 whole entry S222P): as the sequence (P08684 whole entry) above, with S222P counted along it

3A4*3 = molecular target: T4, 3A4*3 (Homo sapiens, UniProt P08684, M445T); experiment: as above; format: biochemical; details: standard error in parentheses
T4 construct: His-tag (concluded from Ni-NTA / Talon purification); biotinylated tag (BCCP; concluded from streptavidin detection); made in house; host or cells: E. coli XL-10 gold
T4 sequence (P08684 whole entry M445T): as the sequence (P08684 whole entry) above, with M445T counted along it

3A4*4 = molecular target: T5, 3A4*4 (Homo sapiens, UniProt P08684, I118V); experiment: as above; format: biochemical; details: standard error in parentheses
T5 construct: His-tag (concluded from Ni-NTA / Talon purification); biotinylated tag (BCCP; concluded from streptavidin detection); made in house; host or cells: E. coli XL-10 gold
T5 sequence (P08684 whole entry I118V): as the sequence (P08684 whole entry) above, with I118V counted along it

3A4*5 = molecular target: T6, 3A4*5 (Homo sapiens, UniProt P08684, P218R); experiment: as above; format: biochemical; details: standard error in parentheses
T6 construct: His-tag (concluded from Ni-NTA / Talon purification); biotinylated tag (BCCP; concluded from streptavidin detection); made in house; host or cells: E. coli XL-10 gold
T6 sequence (P08684 whole entry P218R): as the sequence (P08684 whole entry) above, with P218R counted along it

3A4*15 = 3A4*15 (Homo sapiens, UniProt P08684, R162Q); experiment: as above
3A4*15, sequence (P08684 whole entry R162Q): as the sequence (P08684 whole entry) above, with R162Q counted along it

[1] = test system: GADD45 promoter element DNA; experiment: Quantitative DNA binding on the p53 protein microarray (33P-labelled duplex DNA); details: 33P GADD45 duplex DNA; for DNA binding Bmax (% wild-type) / Kd: room temperature 30 min, confidence limits in parentheses; for GADD45 DNA binding, in words: p53 microarray
[2] = Gel encapsulated (agarose) microsomes
[3] = 200 μM cumene hydrogen peroxide
[4] = normalised for P450 concentration and scaled to wild-type

Compound: O=c1ccc2nc3ccc(OCc4ccccc4)cc3oc-2c1 [BzRes, resorufin benzyl ether]
BzRes Oxidation Vmax (% of soluble) (cytochrome P450 3A4; [2]): 50 (6) % of soluble
Km (cytochrome P450 3A4; [2]): 49 µM
BzRes Oxidation Vmax (% of soluble) (cytochrome P450 3A4; Soluble microsomes): 100 (6) % of soluble
Km (cytochrome P450 3A4; Soluble microsomes): 20 µM
Km (3A4*WT; [3]): 104 µM
Vmax BzRes (3A4*WT; [4]): 100 (34)
Km (3A4*2; [3]): 62 µM
Vmax BzRes (3A4*2; [4]): 65 (9)
Km (3A4*3; [3]): 54 µM
Vmax BzRes (3A4*3; [4]): 93 (24)
Km (3A4*4; [3]): 111 µM
Vmax BzRes (3A4*4; [4]): 69 (22)
Km (3A4*5; [3]): 101 µM
Vmax BzRes (3A4*5; [4]): 59 (16)
Vmax BzRes (3A4*15; normalised for P450 concentration and scaled to wild-type, standard error in parentheses): 111 (23)
Km (3A4*15; read-out: KM BzRes, 200 μM cumene hydrogen peroxide, standard error in parentheses): 89 µM

DNA binding Bmax (% wild-type) [1]: 54 (40-70) % wild-type
Kd [1]: 21 nM
Compound: R280K: p53 mutant protein, His- and biotin-tagged, E. coli expressed [Mutation R280K]

DNA binding Bmax (% wild-type) [1]: 121 (107-136) % wild-type
Kd [1]: 10 nM
Compound: S392A: p53 mutant protein, His- and biotin-tagged, E. coli expressed [Mutation S392A]

DNA binding Bmax (% wild-type) [1]: 88 (81-95) % wild-type
Kd [1]: 11 nM
GADD45 DNA binding, in words [1]: wild-type binding
Compound: R181C: p53 mutant protein, His- and biotin-tagged, E. coli expressed [Mutation R181C]

DNA binding Bmax (% wild-type) [1]: 48 (40-57) % wild-type
Kd [1]: 11 nM
GADD45 DNA binding, in words [1]: wild-type binding
Compound: R181H: p53 mutant protein, His- and biotin-tagged, E. coli expressed [Mutation R181H]

DNA binding Bmax (% wild-type) [1]: 73 (67-79) % wild-type
Kd [1]: 7 nM
GADD45 DNA binding, in words [1]: near wild-type affinity
Compound: G325V: p53 mutant protein, His- and biotin-tagged, E. coli expressed [Mutation G325V]
